Data taken from US5681738A, “Use of 10-oxo-trans-8-decenoic acid in mushroom cultivation” (The Penn State Research Foundation, priority 1992, dated 1997).

Assays:
[1] = system: Agaricus bisporus mycelia; assay: Linear growth rate of mycelia on potato dextrose yeast (PDY) agar at 25° C.; type: cell-based, Agaricus bisporus (hybrid off-white); conditions: for linear growth rate of mycelia (in words): PDY agar; for Linear growth rate: control 5.66
Description: The commercial mushroom spawn (hybrid off-white), Agaricus bisporus (Lange) Imbach, was obtained from Alpha Spawn Co., Avondale, Pa., and inoculated onto potato dextrose yeast (PDY) agar (Difco) and incubated at 25° C. A pure culture was obtained from the grain spawn grown on petri dishes and re-inoculated into PDY agar and maintained at 25° C. before use.
The mushroom culture was grown on PDY agar or in PDY broth, both containing 0.5% yeast extract. The broth was dispensed into flasks prior to autoclaving, 50 mL. per flask, while 5 mL of sterile ODA solutions were aseptically added into flasks before inoculation.
To prepare ODA solutions, about 18.4 mg (0.1 mmole) of 10-oxo-trans-8-decenoic acid prepared as described above were dissolved in i mL ethanol and diluted with deionized water to 100 mL to give a molar concentration of 10^-3 M, and then diluted in order to add 1.0 mL of the solutions to each flask to give the required final concentrations.
Sterile ODA solutions were aseptically added into the autoclaved agar medium to achieve the desired final ODA concentrations, and then the medium was dispensed into petri dishes, ca 30 ml per dish. The levels of ODA tested included 2×10^-4, 10^-4, 10^-5, 10^-6 and 10^-7 M for both PDY agar and broth. […]
Methods for the estimation of total fungal growth include the measurement of dry matter, linear growth, carbon dioxide evolution, chitin, ATP as well as extracellular laccase activity (Cochrane, (1958); Wood, (1979)). In this research the linear growth rate was used to examine the growth of mushroom mycelia on agar plates, while the extracellular laccase activity and dry matter were determined to estimate the growth of mycelia in liquid cultures. Extracellular laccases (p-diphenol: oxygen oxidoreductase, EC 1.10.3.2) produced by various classes of fungi are reported to be involved in biotransformation of lignin and lignosulfonate (Anders et al., (1976)), as well as in the breakdown of cellulose by cellulase (Westermark et al., (1974a); Westermark et al., (1974b); Haars et al., (1980)). Although the role of laccase in growth and development of Agaricus bisporus is not well defined, it has been observed that laccase production correlated with mycelial biomass of this fungus (Wood, (1979); Matcham et al., (1985); Claydon et al., (1988)).

[2] = system: separated stipes of Agaricus bisporus; assay: Elongation of separated stipes on test agar containing mushroom supernatants, 6-day storage at 12° C.; design: species or system Agaricus bisporus (off-white); conditions: as a function of added ODA
Description: Whole stipes were cut at the lower portions to a length of 7-9 mm to standardize the sample, and marked at the middle of the veil, which is the location where the veil attaches to the stipe, to indicate the upper and lower stipes. The separated stipes contained 2-4 mm of upper stipes and 5-6 nun of lower stipes. […] The length of separated stipes and upper stipes was measured using a vernier caliper before and after certain days of storage.
Sterile mushroom supernatants (25 mL), phosphate buffer and deionized H2 O were added aseptically into 175 mL agar solution prior to dispensing into dishes. […] The concentrations of ODA in the 2% agar were calculated to be 3.4×10^-6, 6.0×10^-5, and 1.2×10^-4 M for treatments 3, 4 and 5. […]

[3] = system: separated upper stipes of Agaricus bisporus; assay: Elongation of separated upper stipes on test agar containing ODA, storage at 12° C.; design: species or system Agaricus bisporus (hybrid off-white)
Description: Four type strains of mushrooms were used: the white, off-white, hybrid white (U3) and hybrid off-white (U1). Mushrooms from each flush were harvested before the veil was broken. Freshly harvested mushrooms were transported within about one hour after harvest to Borland Laboratory and placed in the pilot plant cold room (4° C.) for about two hours before sampling. Mushrooms were sorted on the basis of size and appearance. Diseased, damaged, misshapen, veil-opened and extremely large or small mushrooms (>40 or <25 mm in cap diameter) were discarded. Mushrooms of uniform size (25-40 mm) and maturity of the button stage (stage 1, veil intact tightly) were used in this research.
Whole stipes were cut at the lower portions to a length of 7-9 mm to standardize the sample, and marked at the middle of the veil, which is the location where the veil attaches to the stipe, to indicate the upper and lower stipes. The separated stipes contained 2-4 mm of upper stipes and 5-6 nun of lower stipes. For the study using separated upper stipes, mushrooms were dissected directly into upper stipes with a length of 3-5 mm. The separated stipes or upper stipes were put upside down on the test agar containing various mushroom supernatants or ODA concentrations; i.e., the upper sides in contact with the agar surface (FIG. 12). All petri dishes were covered and stored at 12° C. The length of separated stipes and upper stipes was measured using a vernier caliper before and after certain days of storage.
Sterile ODA solutions were aseptically added into the autoclaved agar solutions to achieve the desired final ODA concentrations. The agar solution was then dispensed into dishes, ca 20.8 mL per dish. The level of ODA tested included 10^-4, 10^-5, 10^-6, 10^-7, and 10^-8 M. Mushrooms (hybrid off-white) from 6 different crops were used to study their postharvest growth. In the first 2 experiments, mushroom stipes were measured after 4-day storage at 12° C. In order to prevent stipe deterioration and desiccation of the test agar, in the following experiments mushroom stipes were measured after 3-day storage at 12° C.
The experimental data were subjected to a single classification analysis of variance (AOV) for a completely randomized design (Steele et al., 1980). Fisher's protected least significant difference (LSD) was applied to separate the means. The level of significance used in this research was 0.05.
Since the upper stipe was the major portion which responded to crude preparations of ODA, the following experiment used only upper stipes and applied pure ODA solns to the test agar. Because desiccation of the test agar sometimes occurred after 4 days of storage, in the third replication of this experiment and in subsequent experiments, the stipes were measured after 3 days of storage.

Compound: O=C/C=C/CCCCCCC(=O)O [ODA, 10-oxo-trans-8-decenoic acid]
- linear growth rate of mycelia (in words) ([1]; 2×10^-4 and 10^-4 M (36.8 and 18.4 ppm)): greatly increased
- linear growth rate of mycelia (in words) ([1]; 10^-5 M (1.84 ppm)): slightly increased
- activity at 200 µM ([1]; Agaricus bisporus, ODA 2 × 10^-4 M (36.8 ppm), control 1.00 d, significance letter a, read-out: Relative linear growth rate): 188%
- activity at 100 µM ([1]; Agaricus bisporus, ODA 10^-4 M (18.4 ppm), control 1.00 d, significance letter b, read-out: Relative linear growth rate): 150%
- activity at 10 µM ([1]; Agaricus bisporus, ODA 10^-5 M (1.84 ppm), control 1.00 d, significance letter c, read-out: Relative linear growth rate): 114%
- activity at 1 µM ([1]; Agaricus bisporus, ODA 10^-6 M (0.184 ppm), control 1.00 d, significance letters cd, read-out: Relative linear growth rate): 110%
- activity at 0.1 µM ([1]; Agaricus bisporus, ODA 10^-7 M (0.0184 ppm), control 1.00 d, significance letters cd, read-out: Relative linear growth rate): 105%
- Linear growth rate ([1]; ODA 2 × 10^-4 M (36.8 ppm) in PDY agar): 9.85 mm/wk
- Linear growth rate ([1]; ODA 10^-4 M (18.4 ppm) in PDY agar): 8.42 mm/wk
- Linear growth rate ([1]; ODA 10^-5 M (1.84 ppm) in PDY agar): 6.40 mm/wk
- Linear growth rate ([1]; ODA 10^-6 M (0.184 ppm) in PDY agar): 6.17 mm/wk
- Linear growth rate ([1]; ODA 10^-7 M (0.0184 ppm) in PDY agar): 5.90 mm/wk
- effect on mushroom mycelial growth (in words) ([1]; PDY agar and broth, linear growth, dry matter and laccase activity): significant stimulatory effect
- elongation of lower stipes (in words) [2]: no differences
- % Elongation of upper stipes ([3]; ODA 10^-4 M (18.4 ppm), rep 1, 4-day storage, control 34.3): 34.8%
- % Elongation of upper stipes ([3]; ODA 10^-4 M (18.4 ppm), rep 2, 4-day storage, control 33.3): 40.1%
- % Elongation of upper stipes ([3]; ODA 10^-4 M (18.4 ppm), rep 3, 3-day storage, control 20.5): 17.7%
- % Elongation of upper stipes ([3]; ODA 10^-5 M (1.84 ppm), rep 1, 4-day storage, control 34.3): 35.5%
- % Elongation of upper stipes ([3]; ODA 10^-5 M (1.84 ppm), rep 2, 4-day storage, control 33.3): 36.5%
- % Elongation of upper stipes ([3]; ODA 10^-5 M (1.84 ppm), rep 3, 3-day storage, control 20.5): 19.3%
- % Elongation of upper stipes ([3]; ODA 10^-6 M (0.184 ppm), rep 1, 4-day storage, control 34.3): 39.9%
- % Elongation of upper stipes ([3]; ODA 10^-6 M (0.184 ppm), rep 2, 4-day storage, control 33.3): 35.7%
- % Elongation of upper stipes ([3]; ODA 10^-6 M (0.184 ppm), rep 3, 3-day storage, control 20.5): 16.6%
- % Elongation of upper stipes ([3]; ODA 10^-7 M (0.0184 ppm), rep 1, 4-day storage, control 34.3): 41.0%
- % Elongation of upper stipes ([3]; ODA 10^-7 M (0.0184 ppm), rep 2, 4-day storage, control 33.3): 42.3%
- % Elongation of upper stipes ([3]; ODA 10^-7 M (0.0184 ppm), rep 3, 3-day storage, control 20.5): 18.1%
- % Elongation of upper stipes ([3]; ODA 10^-8 M (0.00184 ppm), rep 1, 4-day storage, control 34.3): 30.1%
- % Elongation of upper stipes ([3]; ODA 10^-8 M (0.00184 ppm), rep 2, 4-day storage, control 33.3): 39.6%
- % Elongation of upper stipes ([3]; ODA 10^-8 M (0.00184 ppm), rep 3, 3-day storage, control 20.5): 15.8%
- elongation of upper stipes among treatments (in words) ([3]; pure ODA, upper stipes only): no differences
